Experimental data reported in ChEMBL document CHEMBL5543158, “Design of Evodiamine-Glucose Conjugates with Improved In Vivo Antitumor Activity” (J Med Chem, 2024).
Values after ≈ are worked out from the molar mass of the structure shown.

Tests used:
[1] = Solubility of the compound in double distilled water measured upto 30 mins by UV-vis spectrophotometry; assay type: physicochemical
[2] = test system: U-87 MG; assay: Antiproliferative activity against human U-87 MG cells measured after 72 hrs by CCK-8 cells; assay type: functional, cell-based, U-87MG ATCC
[3] = test system: A549; assay: Antiproliferative activity against human A549 cells measured after 72 hrs by CCK-8 cells; assay type: functional, cell-based; conditions: A549, 72 h
[4] = test system: HCT-116; assay: Antiproliferative activity against human HCT116 cells measured after 72 hrs by CCK-8 cells; assay type: functional, cell-based; conditions: HCT-116, 72 h

SMILES | solubility at 0.5 h [1] [µg/mL] | IC50 [2] [nM] | IC50 [3] [nM] | IC50 [4] [nM]
CN1c2ccc(F)cc2C(=O)N2CCc3c([nH]c4ccc(OC(=O)CCC(=O)NCCCO[C@@H]5O[C@H](CO)[C@@H](O)[C@H](O)[C@H]5O)cc34)[C@H]21 | 1990 (≈ 3.03 mM) | 49 | 49 | 49
CN1c2ccc(F)cc2C(=O)N2CCc3c([nH]c4ccc(OC(=O)CCCC(=O)NCCCO[C@@H]5O[C@H](CO)[C@@H](O)[C@H](O)[C@H]5O)cc34)[C@H]21 | 2470 (≈ 3.68 mM) | 54 | 54 | 54
